target: T1, hFXR (Homo sapiens, UniProt Q96RI1); experiment: In Vitro FXR Assay (TK): TK-ECRE-luc reporter in transfected CV-1 cells; type: cell-based; details: 18 hrs, luminescence, maximum efficacy of <25% of the Fexarmine control classified as '+'
T1 construct: expressed in transfected cells; host or cells: CV-1 cells
T1 sequence (Q96RI1 1-486): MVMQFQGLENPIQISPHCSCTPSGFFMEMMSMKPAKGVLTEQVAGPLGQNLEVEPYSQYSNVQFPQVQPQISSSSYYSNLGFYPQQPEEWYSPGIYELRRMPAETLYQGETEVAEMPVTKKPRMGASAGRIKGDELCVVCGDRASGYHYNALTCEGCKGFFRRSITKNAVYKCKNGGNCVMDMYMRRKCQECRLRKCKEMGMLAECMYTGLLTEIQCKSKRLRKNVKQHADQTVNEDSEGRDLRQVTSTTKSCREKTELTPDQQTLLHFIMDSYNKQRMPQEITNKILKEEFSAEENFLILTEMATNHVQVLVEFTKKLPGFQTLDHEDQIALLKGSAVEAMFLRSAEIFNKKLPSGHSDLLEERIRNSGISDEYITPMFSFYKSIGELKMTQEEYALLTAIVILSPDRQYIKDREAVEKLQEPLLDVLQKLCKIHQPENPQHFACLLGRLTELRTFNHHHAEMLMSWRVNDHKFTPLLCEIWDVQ
T1 sequence (P19793 1-462 partner): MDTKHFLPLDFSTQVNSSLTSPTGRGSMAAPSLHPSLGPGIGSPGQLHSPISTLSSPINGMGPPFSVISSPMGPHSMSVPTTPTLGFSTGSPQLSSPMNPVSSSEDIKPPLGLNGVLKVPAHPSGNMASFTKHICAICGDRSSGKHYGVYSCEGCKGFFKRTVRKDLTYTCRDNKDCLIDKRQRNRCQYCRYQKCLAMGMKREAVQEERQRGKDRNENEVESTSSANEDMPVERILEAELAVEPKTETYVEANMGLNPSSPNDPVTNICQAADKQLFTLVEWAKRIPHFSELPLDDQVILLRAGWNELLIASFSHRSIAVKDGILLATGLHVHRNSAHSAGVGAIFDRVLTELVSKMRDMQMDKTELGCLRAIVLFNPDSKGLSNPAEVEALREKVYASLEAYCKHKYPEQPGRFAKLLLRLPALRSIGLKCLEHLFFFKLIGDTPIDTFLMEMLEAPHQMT
Outline: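 Reporter transactivation by hFXR was measured in CV-1 cells carrying hRXR and a TK-ECRE-luc construct, with compound treatment for 18 h before lysis and luminescence detection.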

Structure (SMILES)	EC50 [nM]
COc1ccc([C@H]2CC[C@H](CN(c3cccc(-c4cnn(C5CC5)c4)c3)C(=O)[C@H]3CC[C@H](NC(=O)CS(C)(=O)=O)CC3)CC2)cc1C [Compound 31.02]	250 to 1000
COc1ccc(C23CCC(CN(c4cccc(-c5cnn(C6CC6)c5)c4)C(=O)[C@H]4CC[C@H](NC(=O)COC(C)=O)CC4)(CC2)CC3)cc1C [Compound 26.08, 2-((4-((3-(1-Cyclopropyl-1H-pyrazol-4-yl)phenyl)((4-(4-methoxy-3-methylphenyl)bicyclo[2.2.2]octan-1-yl)methyl)carbamoyl)cyclohexyl)amino)-2-oxoethyl trans-acetate]	≤ 250
COc1ccc([C@H]2CC[C@H](CN(c3cccc(-c4cnn(C5CC5)c4)c3)C(=O)[C@H]3CC[C@H](OC(=O)NC4COC4)CC3)CC2)cc1C [Compound 6.24, trans-4-((3-(1-Cyclopropyl-1H-pyrazol-4-yl)phenyl)((trans-4-(4-methoxy-3-methylphenyl)cyclohexyl)methyl)carbamoyl)cyclohexyl oxetan-3-ylcarbamate]	≤ 250
CNC(=O)O[C@H]1CC[C@H](C(=O)N(C[C@H]2CC[C@H](c3ccc(N(C)C)nc3)CC2)c2cccc(-c3cnc(C4CC4)s3)c2)CC1 [Compound 1, trans-4-((3-(2-Cyclopropylthiazol-5-yl)phenyl)((trans-4-(6-(dimethylamino)pyridin-3-yl)cyclohexyl)methyl)carbamoyl)cyclohexyl methylcarbamate]	≤ 250
COc1ncc(-c2cccc(N(C[C@H]3CC[C@H](c4ccc(OC)c(C)c4)CC3)C(=O)[C@H]3CC[C@H](CO)CC3)c2)s1 [Compound 15.01, trans-4-(Hydroxymethyl)-N-((trans-4-(4-methoxy-3-methylphenyl)cyclohexyl)methyl)-N-(3-(2-methoxythiazol-5-yl)phenyl)cyclohexanecarboxamide]	≤ 250
COc1ccc([C@H]2CC[C@H](CN(c3cccc(-c4cnn(C5CC5)c4)c3)C(=O)[C@H]3CC[C@H](OC(=O)N4CC(O)C4)CC3)CC2)cc1C#N [Compound 7.19, trans-4-(((trans-4-(3-Cyano-4-methoxyphenyl)cyclohexyl)methyl)(3-(1-cyclopropyl-1H-pyrazol-4-yl)phenyl)carbamoyl)cyclohexyl 3-hydroxyazetidine-1-carboxylate]	≤ 250
CNC(=O)O[C@H]1CC[C@H](C(=O)N(C[C@H]2CC[C@H](c3ccc(OC)c(C#N)c3)CC2)c2cc(-c3cnc(C4CC4)s3)ccn2)CC1 [Compound 5.05, trans-4-(((trans-4-(3-Cyano-4-methoxyphenyl)cyclohexyl)methyl)(4-(2-cyclopropylthiazol-5-yl)pyridin-2-yl)carbamoyl)cyclohexyl methylcarbamate]	≤ 250
COc1ccc([C@H]2CC[C@H](CN(c3cc(-c4cnc(C5CC5)s4)ccn3)C(=O)[C@H]3CC[C@H](OC(=O)N4CC(O)C4)CC3)CC2)nc1C [Compound 7.06, trans-4-((4-(2-Cyclopropylthiazol-5-yl)pyridin-2-yl)((trans-4-(5-methoxy-6-methylpyridin-2-yl)cyclohexyl)methyl)carbamoyl)cyclohexyl 3-hydroxyazetidine-1-carboxylate]	≤ 250
COc1ccc([C@H]2CC[C@H](CN(c3cc(-c4coc(C5CC5)n4)ccn3)C(=O)[C@H]3CC[C@H](OC(=O)N(C)CC(C)O)CC3)CC2)nc1C (stereo partly drawn) [Compound 6.67, trans-4-((4-(2-Cyclopropyloxazol-4-yl)pyridin-2-yl)((trans-4-(5-methoxy-6-methylpyridin-2-yl)cyclohexyl)methyl)carbamoyl)cyclohexyl(2-hydroxypropyl)(methyl)carbamate]	≤ 250

Second part, the molecule after the results:

EC50 [nM]	Structure (SMILES)
≤ 250	CNC(=O)O[C@H]1CC[C@H](C(=O)N(C[C@H]2CC[C@H](c3ccc(OC)c(C)n3)CC2)c2cccc(-c3coc(C(C)C)n3)c2)CC1 [Compound 5.31, trans-4-((3-(2-Isopropyloxazol-4-yl)phenyl)((trans-4-(5-methoxy-6-methylpyridin-2-yl)cyclohexyl)methyl)carbamoyl)cyclohexyl methylcarbamate]
≤ 250	COc1ccc([C@H]2CC[C@H](CN(c3cccc(-c4coc(C5CC5)n4)c3)C(=O)[C@H]3CC[C@H](CC(=O)O)CC3)CC2)cc1C#N [Compound 21.05, 2-(trans-4-(((trans-4-(3-Cyano-4-methoxyphenyl)cyclohexyl)methyl)(3-(2-cyclopropyloxazol-4-yl)phenyl)carbamoyl)cyclohexyl)acetic acid]
≤ 250	COc1ccc([C@H]2CC[C@H](CN(c3cc(-c4coc(C5CC5)n4)ccn3)C(=O)[C@H]3CC[C@H](OC(=O)NCCO)CC3)CC2)cc1C [Compound 6.52, trans-4-((4-(2-Cyclopropyloxazol-4-yl)pyridine-2-yl)((trans-4-(4-methoxy-3-methylphenyl)cyclohexyl)methyl)carbamoyl)cyclohexyl (2-hydroxyethyl) carbamate]
≤ 250	COc1ccc([C@H]2CC[C@H](CN(c3cc(-c4cnn(C(C)C)c4)ccn3)C(=O)[C@H]3CC[C@H](OC(=O)N4CC(CO)C4)CC3)CC2)nc1C [Compound 7.59, trans-4-((4-(1-Isopropyl-1H-pyrazol-4-yl)pyridin-2-yl)((trans-4-(5-methoxy-6-methylpyridin-2-yl)cyclohexyl)methyl)carbamoyl)cyclohexyl 3-(hydroxymethyl)azetidine-1-carboxylate]
≤ 250	COc1ccc([C@H]2CC[C@H](CN(c3cccc(-c4cnc(C5CC5)s4)c3)C(=O)[C@H]3CC[C@H](C(=O)O)CC3)CC2)nc1C [Compound 17.08, trans-4-((3-(2-Cyclopropylthiazol-5-yl)phenyl)((trans-4-(5-methoxy-6-methylpyridin-2-yl)cyclohexyl)methyl)carbamoyl) cyclohexanecarboxylic acid]
≤ 250	COc1ccc([C@H]2CC[C@H](CN(c3cccc(-c4cnn(C(C)C)c4)c3)C(=O)[C@H]3CC[C@H](OC(=O)N4CC(N(C)C)C4)CC3)CC2)nc1C [Compound 7.53, trans-4-((3-(1-Isopropyl-1H-pyrazol-4-yl)phenyl)((trans-4-(5-methoxy-6-methylpyridin-2-yl)cyclohexyl)methyl)carbamoyl)cyclohexyl 3-(dimethylamino)azetidine-1-carboxylate]
≤ 250	COc1ccc([C@H]2CC[C@H](CN(c3cccc(-c4cnc(C5CC5)s4)c3)C(=O)[C@H]3CC[C@H](NC(=O)CC(C)C)CC3)CC2)cc1C [Compound 25.18, trans-N-(3-(2-Cyclopropylthiazol-5-yl)phenyl)-N-((trans-4-(4-methoxy-3-methylphenyl)cyclohexyl)methyl)-4-(3-methylbutanamido) cyclohexanecarboxamide]
≤ 250	COc1ccc([C@H]2CC[C@H](CN(c3cccc(-c4coc(C5CC5)n4)c3)C(=O)[C@H]3CC[C@H](OC(=O)NCCO)CC3)CC2)cc1C#N [Compound 6.53, trans-4-(((trans-4-(3-Cyano-4-methoxyphenyl)cyclohexyl)methyl)(3-(2-cyclopropyloxazol-4-yl)phenyl)carbamoyl)cyclohexyl (2-hydroxyethyl)carbamate]
≤ 250	COc1ccc([C@H]2CC[C@H](CN(c3cc(-c4coc(C5CC5)n4)ccn3)C(=O)[C@H]3CC[C@H](OC(=O)N4CCC4)CC3)CC2)nc1C [Compound 7.75, trans-4-((4-(2-Cyclopropyloxazol-4-yl)pyridine-2-yl)((trans-4-(5-methoxy-6-methylpyridin-2-yl)cyclohexyl)methyl)carbamoyl)cyclohexyl azetidine-1-carboxylate]
≤ 250	COc1ccc([C@H]2CC[C@H](CN(c3cccc(-c4cnn(C5CC5)c4)c3)C(=O)[C@H]3CC[C@H](OC(=O)N4CCS(=O)(=O)CC4)CC3)CC2)cc1C [Compound 7.30, trans-4-((3-(1-Cyclopropyl-1H-pyrazol-4-yl)phenyl)((trans-4-(4-methoxy-3-methylphenyl)cyclohexyl)methyl)carbamoyl)cyclohexyl thiomorpholine-4-carboxylate1,1-dioxide]
≤ 250	CNC(=O)O[C@H]1CC[C@H](C(=O)N(C[C@H]2CC[C@H](c3ccc(OC)c(C)c3)CC2)c2cc(-c3cnn(C(C)C)c3)ccn2)CC1 [Compound 5.12, trans-4-((4-(1-Isopropyl-1H-pyrazol-4-yl)pyridin-2-yl)((trans-4-(4-methoxy-3-methylphenyl)cyclohexyl)methyl)carbamoyl)cyclohexyl methylcarbamate]
≤ 250	COCCCO[C@H]1CC[C@H](C(=O)N(C[C@H]2CC[C@H](c3ccc(OC)c(C)c3)CC2)c2cccc(-c3cnc(OC)s3)c2)CC1 [Compound 13.02, trans-N-((trans-4-(4-Methoxy-3-methylphenyl)cyclohexyl)methyl)-4-(3-methoxypropoxy)-N-(3-(2-methoxythiazol-5-yl)phenyl) cyclohexanecarboxamide]

From US20220089575A1, “FARNESOID X RECEPTOR AGONISTS AND USES THEREOF” (Metacrine, Inc., priority 2017, published 2022)
